Measurements taken from patent US20250282746A1, “HALOGEN-SUBSTITUTED ISOINDOLINE COMPOUND AND USE THEREOF” (CHENGDU FENDI PHARMACEUTICAL CO., LTD., priority 2022, published 2025).

What was measured:
MV-4-11 cells = assay: Antiproliferative activity against MV-4-11 cells (CellTiter-Glo, 72 h); assay type: cell-based; details: Homo sapiens, MV4-11; MV-4-11 cells, 72 h; read-out: Antiproliferative activity IC50
Protocol: MV411 cells in the logarithmic growth phase were diluted in a medium (RPMI+10% FBS) and plated at 5,000 cells/well in 96-well whole black plates (WHB) with 50 μL/well. After plating, the plates were incubated in an incubator at 5% CO2 and 37° C. for 24 h before the compounds were added. The compounds were prepared into a 10 mM stock solution in DMSO and diluted in a culture medium to the desired concentrations (a final DMSO concentration of 0.2%). […] The plates were incubated at 5% CO2 and 37° C. for 72 h. After the incubation was complete, the plates were equilibrated at room temperature for 30 min. CellTiter-Glo® Reagent (Promega G7573) was added at 100 μL/well. The plates were shaken for 12 min on a microplate shaker. The luminescence value was measured at room temperature by the GloMax navigator (Promega GM2010).

GSPT1 protein = target: T1, GSPT1 protein (Homo sapiens, UniProt P15170); assay: Degradation of GSPT1 protein in NB-4 cells (Western blot); assay type: cell-based; details: NB-4 cells, compound 1 μM, 6 h; read-out: GSPT1 degradation
T1 construct: The whole cell lysate was prepared using a RIPA lysis buffer; endogenous in cells; host or cells: NB-4 cells
Protocol: 150 μL of DMSO and the compounds (1 μM) were added, and the mixture was incubated in an incubator at 5% CO2 and 37° C. for 6 h. The cells were centrifuged, and the culture medium was discarded. PBS was added for washing and then discarded. The whole cell lysate was prepared using a RIPA lysis buffer containing a protease inhibitor cocktail and a phosphatase inhibitor, and incubated on ice for 30 min. The mixture was centrifuged, and the cell debris was discarded. The whole cell lysate supernatant was collected and transferred to a fresh EP tube. Samples were prepared using a loading buffer after a BCA protein assay. The samples were incubated in a metal bath at 100° C. for 10 min.
The samples were electrophoretically separated from proteins on a 4-20% precast gel (SDS-PAGE gel), transferred to a PVDF membrane, blocked with 5% NFDM/TBST for 1 h at room temperature, co-incubated overnight at 4° C. with the primary antibody, and co-incubated for 2 h at room temperature with the secondary antibody on the next day. The signals were detected on the […]™ imaging system.

T1 sequence (P15170 whole entry): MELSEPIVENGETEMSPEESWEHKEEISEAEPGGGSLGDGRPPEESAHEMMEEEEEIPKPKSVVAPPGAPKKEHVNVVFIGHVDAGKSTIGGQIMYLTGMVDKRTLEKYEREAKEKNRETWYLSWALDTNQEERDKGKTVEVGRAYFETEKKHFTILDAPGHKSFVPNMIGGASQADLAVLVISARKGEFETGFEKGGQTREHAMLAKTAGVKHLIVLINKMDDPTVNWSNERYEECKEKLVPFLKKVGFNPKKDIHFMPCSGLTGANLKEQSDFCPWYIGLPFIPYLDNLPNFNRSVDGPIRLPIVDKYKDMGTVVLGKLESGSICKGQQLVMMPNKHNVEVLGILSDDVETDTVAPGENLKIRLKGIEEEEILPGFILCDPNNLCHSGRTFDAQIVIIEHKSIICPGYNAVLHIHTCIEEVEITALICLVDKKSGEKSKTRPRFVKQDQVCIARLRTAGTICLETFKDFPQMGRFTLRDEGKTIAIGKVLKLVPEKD

Row | Structure (SMILES) | IC50 (MV-4-11 cells) [nM] | inhibition at 1 µM (GSPT1 protein) [%]
1 | N#Cc1cc(C(=O)NCc2ccc3c(c2Cl)CN(C2CCC(=O)NC2=O)C3=O)ccc1Cl (centres unmarked) [FDAB-78] | > 1000 | < 25
2 | O=C1CCC(N2Cc3c(ccc(CNC(=O)c4ccc(Cl)c(O)c4)c3Cl)C2=O)C(=O)N1 (centres unmarked) [FDAB-79] | 10 to 100 | > 80
3 | O=C1CCC(N2Cc3c(ccc(CNC(=O)c4ccc(Cl)cn4)c3Cl)C2=O)C(=O)N1 (centres unmarked) [FDAB-80] | > 1000 | < 25
4 | O=C1CCC(N2Cc3c(ccc(CNC(=O)c4ccccc4)c3F)C2=O)C(=O)N1 (centres unmarked) [FDAB-81] | > 1000 | < 25
5 | N#Cc1cc(C(=O)NCc2ccc3c(c2F)CN(C2CCC(=O)NC2=O)C3=O)ccc1Cl (centres unmarked) [FDAB-82] | > 1000 | < 25
6 | O=C1CCC(N2Cc3c(ccc(CNC(=O)c4ccc(Cl)c(O)c4)c3F)C2=O)C(=O)N1 (centres unmarked) [FDAB-83] | 10 to 100 | > 80
7 | O=C1CCC(N2Cc3c(ccc(CNC(=O)c4ccc(-c5ccccc5)cc4)c3F)C2=O)C(=O)N1 (centres unmarked) [FDAB-84] | < 1 | > 80
8 | COc1ccc(C(=O)NCc2ccc3c(c2F)CN(C2CCC(=O)NC2=O)C3=O)cc1 (centres unmarked) [FDAB-85] | 10 to 100 | > 80
9 | CN(C)c1ccc(C(=O)NCc2ccc3c(c2F)CN(C2CCC(=O)NC2=O)C3=O)cc1 (centres unmarked) [FDAB-86] | 1 to 10 | > 80
10 | O=C1CCC(N2Cc3c(ccc(CNC(=O)c4ccc5cc6ccccc6cc5c4)c3F)C2=O)C(=O)N1 (centres unmarked) [FDAB-87] | < 1 | < 25
11 | [2H]c1c([2H])c([2H])c(C(=O)NCc2ccc3c(c2F)CN(C2CCC(=O)NC2=O)C3=O)c([2H])c1[2H] (centres unmarked) [FDAB-88] | > 1000 | < 25
12 | Cc1cccc(C(=O)NCc2ccc3c(c2F)CN(C2CCC(=O)NC2=O)C3=O)c1 (centres unmarked) [FDAB-89] | > 1000 | < 25
13 | CCc1ccc(C(=O)NCc2ccc3c(c2F)CN(C2CCC(=O)NC2=O)C3=O)cc1 (centres unmarked) [FDAB-90] | 1 to 10 | > 80
14 | CCCc1ccc(C(=O)NCc2ccc3c(c2F)CN(C2CCC(=O)NC2=O)C3=O)cc1 (centres unmarked) [FDAB-91] | < 1 | > 80
15 | CC(C)c1ccc(C(=O)NCc2ccc3c(c2F)CN(C2CCC(=O)NC2=O)C3=O)cc1 (centres unmarked) [FDAB-93] | < 1 | > 80
16 | C=Cc1ccc(C(=O)NCc2ccc3c(c2F)CN(C2CCC(=O)NC2=O)C3=O)cc1 (centres unmarked) [FDAB-95] | 1 to 10 | > 80
17 | C#Cc1ccc(C(=O)NCc2ccc3c(c2F)CN(C2CCC(=O)NC2=O)C3=O)cc1 (centres unmarked) [FDAB-96] | 1 to 10 | > 80
18 | O=C1CCC(N2Cc3c(ccc(CNC(=O)c4ccc(C5CC5)cc4)c3F)C2=O)C(=O)N1 (centres unmarked) [FDAB-97] | 1 to 10 | > 80
19 | O=C1CCC(N2Cc3c(ccc(CNC(=O)c4ccc5c(c4)CC5)c3F)C2=O)C(=O)N1 (centres unmarked) [FDAB-98] | 1 to 10 | > 80
20 | CC(=O)c1ccc(C(=O)NCc2ccc3c(c2F)CN(C2CCC(=O)NC2=O)C3=O)cc1 (centres unmarked) [FDAB-99] | 10 to 100 | 50 to 80
21 | O=C1CCC(N2Cc3c(ccc(CNC(=O)c4ccc(Oc5ccccc5)cc4)c3F)C2=O)C(=O)N1 (centres unmarked) [FDAB-101] | < 1 | > 80
22 | COc1ccc(C(=O)NCc2ccc3c(c2F)CN(C2CCC(=O)NC2=O)C3=O)cc1OC (centres unmarked) [FDAB-102] | > 1000 | < 25
23 | CC(C)(C)Oc1ccc(C(=O)NCc2ccc3c(c2F)CN(C2CCC(=O)NC2=O)C3=O)cc1 (centres unmarked) [FDAB-103] | < 1 | > 80
24 | COc1cc(C)ccc1C(=O)NCc1ccc2c(c1F)CN(C1CCC(=O)NC1=O)C2=O (centres unmarked) [FDAB-104] | > 1000 | < 25
25 | O=C1CCC(N2Cc3c(ccc(CNC(=O)c4ccc5c(c4)C(=O)CC5)c3F)C2=O)C(=O)N1 (centres unmarked) [FDAB-106] | 10 to 100 | > 80
26 | CS(=O)(=O)c1ccc(C(=O)NCc2ccc3c(c2F)CN(C2CCC(=O)NC2=O)C3=O)cc1 (centres unmarked) [FDAB-107] | > 1000 | < 25
27 | O=C1CCC(N2Cc3c(ccc(CNC(=O)c4ccc(CO)cc4)c3F)C2=O)C(=O)N1 (centres unmarked) [FDAB-108] | > 1000 | < 25
28 | Cc1ccc(C(=O)NCc2ccc3c(c2F)CN(C2CCC(=O)NC2=O)C3=O)c(O)c1 (centres unmarked) [FDAB-109] | 1 to 10 | > 80
